Reference: ChEMBL document CHEMBL1156866 (J Med Chem, 2010)
Values belong to the compound of their own block, whether it stands above or below them. Active and inactive are the calls of the source. No cut-off for these calls is given here.

Tests used:
[1] = biological target: T1, Proton-coupled folate transporter (Homo sapiens, UniProt Q96NT5); assay: Displacement of [3H]MTX from human PCFT expressed in Chinese hamster R2 cells at pH 6.8 by Dixon plot; assay type: cell-based
T1 sequence (Q96NT5 whole entry): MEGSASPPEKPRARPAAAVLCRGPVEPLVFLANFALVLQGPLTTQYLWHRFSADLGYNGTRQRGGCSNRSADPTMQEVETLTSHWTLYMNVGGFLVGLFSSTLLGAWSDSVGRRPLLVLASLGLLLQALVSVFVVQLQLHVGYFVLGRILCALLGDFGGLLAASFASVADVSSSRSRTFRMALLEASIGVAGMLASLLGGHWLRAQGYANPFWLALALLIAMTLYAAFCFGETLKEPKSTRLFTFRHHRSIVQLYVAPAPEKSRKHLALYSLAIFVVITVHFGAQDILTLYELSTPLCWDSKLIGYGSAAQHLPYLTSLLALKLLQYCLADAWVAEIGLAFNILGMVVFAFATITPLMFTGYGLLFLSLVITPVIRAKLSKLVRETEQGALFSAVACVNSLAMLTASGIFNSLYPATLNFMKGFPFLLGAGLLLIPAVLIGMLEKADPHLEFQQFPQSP

[2] = tested on: R2; assay: cells; settings: Homo sapiens, R2, 96 h
[3] = cells; settings: Cricetulus griseus, 96 h
[4] = biological target: Folate receptor beta (Homo sapiens) (UniProt P14207); assay: Displacement of [3H]folic acid from human FRbeta expressed in Chinese hamster D4 cells relative to unlabeled folic acid; assay type: cell-based
Folate receptor beta (Homo sapiens), sequence (P14207 17-230 limits assumed): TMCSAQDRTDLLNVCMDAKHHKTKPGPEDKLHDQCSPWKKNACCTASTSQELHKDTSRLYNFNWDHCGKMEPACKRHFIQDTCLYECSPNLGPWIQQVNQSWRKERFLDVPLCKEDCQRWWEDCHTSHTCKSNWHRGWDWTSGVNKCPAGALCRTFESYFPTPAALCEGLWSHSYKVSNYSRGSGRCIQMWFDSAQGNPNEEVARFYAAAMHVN

[5] = biological target: Folate receptor alpha (Homo sapiens) (UniProt P15328); assay: Displacement of [3H]folic acid from human FRalpha expressed in Chinese hamster RT16 cells relative to unlabeled folic acid; assay type: cell-based
Folate receptor alpha (Homo sapiens), sequence (P15328 25-234 limits assumed): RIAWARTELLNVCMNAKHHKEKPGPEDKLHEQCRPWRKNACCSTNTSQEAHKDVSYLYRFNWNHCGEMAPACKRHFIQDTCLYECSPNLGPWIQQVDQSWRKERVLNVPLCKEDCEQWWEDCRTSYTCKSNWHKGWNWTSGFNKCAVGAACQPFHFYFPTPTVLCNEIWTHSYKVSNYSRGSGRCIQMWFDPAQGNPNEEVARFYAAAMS

[6] = biological target: T1, Proton-coupled folate transporter; assay: Displacement of [3H]MTX from human PCFT expressed in Chinese hamster R2 cells at pH 5.5 by Dixon plot; assay type: cell-based
[7] = cells; settings: Cricetulus griseus, D4, 96 h
[8] = biological target: T2, Reduced folate transporter (Homo sapiens) (UniProt P41440); assay: Displacement of [3H]MTX from human RFC expressed in Chinese hamster PC43-10 cells at 10 uM; assay type: cell-based
T2 sequence (whole entry): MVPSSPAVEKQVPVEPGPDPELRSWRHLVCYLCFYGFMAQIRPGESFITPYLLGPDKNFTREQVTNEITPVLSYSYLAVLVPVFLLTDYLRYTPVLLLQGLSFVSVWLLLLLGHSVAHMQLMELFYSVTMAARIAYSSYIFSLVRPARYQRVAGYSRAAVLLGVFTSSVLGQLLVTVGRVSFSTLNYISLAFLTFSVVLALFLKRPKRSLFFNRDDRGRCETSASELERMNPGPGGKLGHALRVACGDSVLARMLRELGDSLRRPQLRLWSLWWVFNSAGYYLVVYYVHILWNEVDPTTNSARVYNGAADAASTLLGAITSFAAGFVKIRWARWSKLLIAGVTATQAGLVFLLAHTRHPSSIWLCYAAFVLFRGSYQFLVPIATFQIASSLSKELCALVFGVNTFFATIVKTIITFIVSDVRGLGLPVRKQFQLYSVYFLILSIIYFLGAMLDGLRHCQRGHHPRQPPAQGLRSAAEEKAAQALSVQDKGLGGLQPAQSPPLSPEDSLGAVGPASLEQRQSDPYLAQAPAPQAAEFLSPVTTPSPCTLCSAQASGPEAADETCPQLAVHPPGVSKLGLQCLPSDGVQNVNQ

[9] = tested on: IGROV-1; assay: cells; settings: Homo sapiens, IGROV-1, 96 h
[10] = cells; settings: Cricetulus griseus, RT16, 96 h
[11] = cells; settings: Cricetulus griseus, PC43-10, 96 h
[12] = tested on: KB; assay: Antitumor activity against human KB cells xenografted in folate deficient diet fed ICR SCID mouse assessed as tumor cell kill at 180 mg/kg, iv administered as Q4dx4 schedule starting from 4 days post tumor implantation; assay type: functional
[13] = tested on: KB; assay: Antitumor activity against human KB cells xenografted in folate deficient diet fed ICR SCID mouse assessed as tumor cell killing at 112.5 mg/kg, iv administered as Q4dx4 schedule starting from 29 days post tumor implantation; assay type: functional
[14] = tested on: KB; assay: Antitumor activity against human KB cells xenografted in folate deficient diet fed ICR SCID mouse assessed as tumor cell kill at 180 mg/kg, iv administered as Q4dx4 schedule starting from 29 days post tumor implantation; assay type: functional
[15] = cells; settings: Cricetulus griseus, RT16, 96 h; remark: listed apart in the source
[16] = tested on: KB; assay: cells; settings: Homo sapiens, 96 h
[17] = tested on: R2; assay: cells; settings: Homo sapiens, R2, 96 h; remark: listed apart in the source
[18] = tested on: KB; assay: cells; settings: Homo sapiens, 96 h; remark: listed apart in the source
[19] = tested on: IGROV-1; assay: cells; settings: Homo sapiens, IGROV-1, 96 h; remark: listed apart in the source
[20] = cells; settings: Cricetulus griseus, D4, 96 h; remark: listed apart in the source

Activity [4]: inactive
inhibition [8]: > 50%
SMILES: Nc1nc2[nH]cc(CCc3ccc(C(=O)N[C@@H](CCC(=O)O)C(=O)O)cc3)c2c(=O)[nH]1

Activity [4]: inactive
Activity [5]: inactive
SMILES: CN(Cc1cnc2nc(N)nc(N)c2n1)c1ccc(C(=O)N[C@@H](CCC(=O)O)C(=O)O)cc1

inhibition [8]: > 50%
SMILES: Cc1nc(=O)c2cc(CN(C)c3ccc(C(=O)N[C@@H](CCC(=O)O)C(=O)O)s3)ccc2[nH]1

inhibition [8]: > 50%
SMILES: Nc1nc(=O)c2c([nH]1)NCC(CNc1ccc(C(=O)N[C@@H](CCC(=O)O)C(=O)O)cc1)N2C=O (mixture of isomers)

Continued, compound first:

SMILES: Nc1nc2[nH]c(CCCCCc3ccc(C(=O)N[C@@H](CCC(=O)O)C(=O)O)s3)cc2c(=O)[nH]1
Ki [1]: 2230 nM
IC50 [2]: 101 nM
IC50 [3]: > 1000 nM
relative binding affinity (RBA) [4]: 1.1
relative binding affinity (RBA) [5]: 0.9
Ki [6]: 100 nM
IC50 [7]: > 1000 nM
Activity [8]: inactive

SMILES: Nc1nc2[nH]c(CCCCc3ccc(C(=O)N[C@@H](CCC(=O)O)C(=O)O)s3)cc2c(=O)[nH]1
IC50 [9]: > 1000 nM
IC50 [2]: 43.4 nM
IC50 [10]: > 1000 nM
IC50 [11]: > 1000 nM
LCK [12]: 3.5
IC50 [3]: > 1000 nM
LCK [13]: 3.8
LCK [14]: 3.7
IC50 [15]: 1.82 nM
IC50 [7]: > 1000 nM
IC50 [16]: > 1000 nM
IC50 [17]: > 1000 nM
Activity [8]: inactive

SMILES: Nc1nc2c(c(=O)[nH]1)C[C@@H](CCc1ccc(C(=O)N[C@@H](CCC(=O)O)C(=O)O)cc1)CN2
Activity [4]: Active
Activity [5]: Active
inhibition [8]: > 50%

SMILES: Nc1nc(N)c2nc(CNc3ccc(C(=O)N[C@@H](CCCNC(=O)c4ccccc4C(=O)O)C(=O)O)cc3)cnc2n1 [TALOTREXIN]
IC50 [9]: 2.47 nM
IC50 [2]: > 1000 nM
IC50 [10]: 864 nM
IC50 [11]: 1.28 nM
IC50 [3]: > 1000 nM
IC50 [15]: 409 nM
IC50 [18]: 5.26 nM
IC50 [17]: > 1000 nM
IC50 [19]: 3.47 nM

SMILES: Nc1nc2[nH]c(CCCCCCc3ccc(C(=O)N[C@@H](CCC(=O)O)C(=O)O)s3)cc2c(=O)[nH]1
IC50 [3]: > 1000 nM
relative binding affinity (RBA) [4]: 0.4
relative binding affinity (RBA) [5]: 0.6
IC50 [7]: > 1000 nM
IC50 [20]: > 1000 nM
Activity [8]: inactive
